What was measured:
Acinetobacter baumannii = assay: Molecular phenotypic antimicrobial susceptibility test (extraction/DNA purification prior to PCR); type: cell-based
Experimental: Detection of Molecular Phenotypic Antimicrobial Susceptibility. Disclosed herein are the methods for the detection of phenotypic antimicrobial susceptibility via molecular methods. The present invention describes how a specimen 100 with a known microbial load is incubated and then exposed to a panel of antimicrobial agents to determine sensitivity (prevention of growth) or resistance (allowance of growth) to the specific antimicrobial agents tested utilizing molecular methods. Sample Collection. Specimens 100 are collected from patients using sterile collection processes that are employed in routine clinical care. Specimens are transported to the testing facility in boric acid preservative. […] The specimens 100 are put through a pathogen identification process using PCR technology (e.g., using the first sample 104). The process for pathogen isolation includes steps of harvesting the pathogen (e.g., via centrifugation), isolating pathogen DNA via a DNA isolation and/or purification kit, and performing PCR on the pathogen DNA via PCR components (e.g., primers, enzymes, buffers) as would be known to the skilled artisan. Simultaneously, an additional aliquot of the same specimen (e.g., the second sample 108) is placed with liquid culture media and incubated for 4-6 hours. This aliquot is used for antimicrobial susceptibility testing if indicated based on the pathogen detection results. […] Specimens 100 with lower pathogen loads could also be utilized in the antibiotic susceptibility phase of testing with or without a longer incubation period. […] Antimicrobial solutions are prepared at known concentrations. The specific antimicrobials and their concentrations are selected based on the pathogen of interest and the described antimicrobial resistance breakpoints for that specimen pathogen and antimicrobial combination. These antimicrobials have been selected based on those commonly utilized by healthcare providers in routine clinical care for the specific type of suspected infection. The number and types of antimicrobials utilized can be customized based on the infection source, pathogen detected, patient-specific factors such as allergies or other health conditions (e.g., chronic kidney disease or concurrent medication use), or healthcare provider preferences such as antimicrobial availability or cost. The antimicrobial solutions are prepared in liquid culture media (such as Muller Hinton Broth) to achieve the desired antimicrobial concentration and are then stored at −80° C. until use. For a given specimen, each antimicrobial is tested at a single or multiple antimicrobial concentration(s) which is its established breakpoints for sensitivity. The antimicrobial solutions are prepared and plated out for each specific pathogen. This allows ease of use on the day of testing after defrosting the plate 112. Table 1, which illustrates the results of molecular phenotypic antimicrobial susceptibility testing when more than one organism is present in the source specimen, provides an example of an antimicrobial plate 112 prepared for this purpose. Of note, control wells containing only culture media are present on all plates 112. This allows for evaluation of pathogen load when no antimicrobial is present. Specimen Exposure to Antimicrobial Agents. The 1 mL aliquot of the specimen 100 previously mixed with culture media and incubated is obtained. Using optical density measurements as a guide, the specimen 100 is diluted to 0.5 McFarland. The specimen 100 is then placed into the previously prepared antimicrobial susceptibility testing plate 112. Each plate 112 is prepared for a single specimen 100 for a specified pathogen based on its detection. For example, if the specimen 100 has more than one pathogen detected that needs different antimicrobial concentrations for exposure due to different minimum inhibitory concentration breakpoints for one or more organisms, then more than one antimicrobial exposure plate 112 may be needed. […]

S. aureus = assay: Molecular phenotypic antimicrobial susceptibility test with direct PCR (no extraction DNA purification step); type: cell-based, Staphylococcus aureus; settings: for Ct at Sensitive Breakpoint: S. aureus isolate NR-46412 HIP13170, Ct at control (average) 18.824; for Molecular Antimicrobial Susceptibility Result: S. aureus isolate NR-46412 HIP13170, at sensitive breakpoint
Experimental: Detection of Molecular Phenotypic Antimicrobial Susceptibility. Disclosed herein are the methods for the detection of phenotypic antimicrobial susceptibility via molecular methods. The present invention describes how a specimen 100 with a known microbial load is incubated and then exposed to a panel of antimicrobial agents to determine sensitivity (prevention of growth) or resistance (allowance of growth) to the specific antimicrobial agents tested utilizing molecular methods.
Sample Collection. Specimens 100 are collected from patients using sterile collection processes that are employed in routine clinical care. Specimens are transported to the testing facility in boric acid preservative.
Preparation of the Specimens for Testing. […] The process for pathogen isolation includes steps of harvesting the pathogen (e.g., via centrifugation), isolating pathogen DNA via a DNA isolation and/or purification kit, and performing PCR on the pathogen DNA via PCR components (e.g., primers, enzymes, buffers) as would be known to the skilled artisan. […] This aliquot is used for antimicrobial susceptibility testing if indicated based on the pathogen detection results. […] Specimens 100 with lower pathogen loads could also be utilized in the antibiotic susceptibility phase of testing with or without a longer incubation period.
Preparation of Antimicrobial Susceptibility Testing Plates. Antimicrobial solutions are prepared at known concentrations. The specific antimicrobials and their concentrations are selected based on the pathogen of interest and the described antimicrobial resistance breakpoints for that specimen pathogen and antimicrobial combination. These antimicrobials have been selected based on those commonly utilized by healthcare providers in routine clinical care for the specific type of suspected infection. The number and types of antimicrobials utilized can be customized based on the infection source, pathogen detected, patient-specific factors such as allergies or other health conditions (e.g., chronic kidney disease or concurrent medication use), or healthcare provider preferences such as antimicrobial availability or cost.
The antimicrobial solutions are prepared in liquid culture media (such as Muller Hinton Broth) to achieve the desired antimicrobial concentration and are then stored at −80° C. until use. For a given specimen, each antimicrobial is tested at a single or multiple antimicrobial concentration(s) which is its established breakpoints for sensitivity. The antimicrobial solutions are prepared and plated out for each specific pathogen. […] This allows for evaluation of pathogen load when no antimicrobial is present.
Specimen Exposure to Antimicrobial Agents. The 1 mL aliquot of the specimen 100 previously mixed with culture media and incubated is obtained. Using optical density measurements as a guide, the specimen 100 is diluted to 0.5 McFarland.
Antimicrobial exposure plates are typically placed into an incubator for 12-16 hours.
Nucleic Acid Amplification of Antimicrobial Agent Exposed Pathogens. The antimicrobial exposure plate is removed after the period of incubation. The specimen then undergoes a purification or lysis step. For example, the specimen may undergo a purification step (e.g., magnetic bead-based or other separation protocol to isolate genetic material). In another example, the specimen may undergo a cell lysis step. For example, buffer (e.g., lysis buffer) may be added and incubated in the thermal cycler for preparation for direct PCR. Next, the specimen may undergo a polymerase chain reaction (PCR) testing protocol, whereby a semi-quantitative PCR method is utilized. This may be completed either with or without a specific extraction protocol step. The pathogens can be individually targeted and detected, or a universal genetic sequence can be utilized to detect the antimicrobial susceptibility of the specimen as a whole.

[1] = A. baumannii isolate 1, Ct at control (average) 18.811
[2] = A. baumannii isolate 1, at sensitive breakpoint
[3] = A. baumannii isolate 2, Ct at control (average) 18.763
[4] = A. baumannii isolate 2, at sensitive breakpoint
[5] = A. baumannii isolate 3, Ct at control (average) 18.799
[6] = A. baumannii isolate 3, at sensitive breakpoint
[7] = A. baumannii isolate 4, Ct at control (average) 18.061
[8] = A. baumannii isolate 4, at sensitive breakpoint
[9] = A. baumannii isolate 5, Ct at control (average) 18.191
[10] = A. baumannii isolate 5, at sensitive breakpoint

| Compound | Ct at Sensitive Breakpoint (Acinetobacter baumannii; [1]) | Molecular Antimicrobial Susceptibility Result (Acinetobacter baumannii; [2]) | Ct at Sensitive Breakpoint (Acinetobacter baumannii; [3]) | Molecular Antimicrobial Susceptibility Result (Acinetobacter baumannii; [4]) | Ct at Sensitive Breakpoint (Acinetobacter baumannii; [5]) | Molecular Antimicrobial Susceptibility Result (Acinetobacter baumannii; [6]) | Ct at Sensitive Breakpoint (Acinetobacter baumannii; [7]) | Molecular Antimicrobial Susceptibility Result (Acinetobacter baumannii; [8]) | Ct at Sensitive Breakpoint (Acinetobacter baumannii; [9]) | Molecular Antimicrobial Susceptibility Result (Acinetobacter baumannii; [10]) | Ct at Sensitive Breakpoint (S. aureus) | Molecular Antimicrobial Susceptibility Result (S. aureus) |
| --- | --- | --- | --- | --- | --- | --- | --- | --- | --- | --- | --- | --- |
| CO/N=C(\C(=O)N[C@@H]1C(=O)N2C(C(=O)[O-])=C(C[N+]3(C)CCCC3)CS[C@H]12)c1csc(N)n1 [Cefepime] | 19.944 | Resistant | 19.194 | Resistant | 19.873 | Sensitive (Antimicrobial wells with pathogen load detected below the control wells (typically >2 cycle thresholds later) may be reported as Sensitive) | 18.955 | Resistant | 18.489 | Resistant |  |  |
| CO[C@@]1(NC(=O)Cc2cccs2)C(=O)N2C(C(=O)O)=C(COC(N)=O)CS[C@@H]21 [Cefoxitin] |  |  |  |  |  |  |  |  |  |  | 14.322 | Resistant |
| CO/N=C(\C(=O)N[C@@H]1C(=O)N2C(C(=O)O)=C(CSc3nc(=O)c(=O)[nH]n3C)CS[C@H]12)c1csc(N)n1 [Ceftriaxone] | 16.497 | Resistant | 19.075 | Resistant | 19.667 | Resistant | 18.774 | Resistant | 18.571 | Resistant |  |  |
| O=C(O)c1cn(C2CC2)c2cc(N3CCNCC3)c(F)cc2c1=O [Ciprofloxacin] | 16.306 | Resistant | 19.471 | Resistant | 17.802 | Resistant | 18.101 | Resistant | 18.773 | Resistant | 18.586 | Resistant |
| C[C@H]1COc2c(N3CCN(C)CC3)c(F)cc3c(=O)c(C(=O)O)cn1c23 [Levofloxacin] | 17.268 | Resistant | 19.405 | Resistant | 18.253 | Resistant | 18.709 | Resistant | 19.052 | Resistant | 18.264 | Resistant |
| C[C@@H](O)[C@H]1C(=O)N2C(C(=O)O)=C(S[C@@H]3CN[C@H](C(=O)N(C)C)C3)[C@H](C)[C@H]12 [Meropenem] | 18.123 | Resistant | 19.761 | Resistant | 18.077 | Resistant | 17.553 | Resistant | 20.173 | Resistant |  |  |
| O=C1CN(/N=C/c2ccc([N+](=O)[O-])o2)C(=O)N1 [Nitrofurantoin] |  |  |  |  |  |  |  |  |  |  | 31.922 | Sensitive (Antimicrobial wells with pathogen load detected below the control wells (typically >2 cycle thresholds later) may be reported as Sensitive) |
| CN(C)[C@@H]1C(O)=C(C(N)=O)C(=O)[C@@]2(O)C(O)=C3C(=O)c4c(O)cccc4[C@@](C)(O)[C@H]3C[C@@H]12 [Tetracycline] |  |  |  |  |  |  |  |  |  |  | 18.43 | Resistant |
| CN[C@H](CC(C)C)C(=O)N[C@H]1C(=O)N[C@@H](CC(N)=O)C(=O)N[C@H]2C(=O)N[C@H]3C(=O)N[C@H](C(=O)N[C@H](C(=O)O)c4cc(O)cc(O)c4-c4cc3ccc4O)[C@H](O)c3ccc(c(Cl)c3)Oc3cc2cc(c3O[C@@H]2O[C@H](CO)[C@@H](O)[C@H](O)[C@H]2O[C@H]2C[C@](C)(N)[C@H](O)[C@H](C)O2)Oc2ccc(cc2Cl)[C@H]1O [Vancomycin] |  |  |  |  |  |  |  |  |  |  | 17.078 | Resistant |
| Ampicillin/Sulbactam |  |  |  |  |  |  | 19.447 | Sensitive (Antimicrobial wells with pathogen load detected below the control wells (typically >2 cycle thresholds later) may be reported as Sensitive) | 19.682 | Sensitive (Antimicrobial wells with pathogen load detected below the control wells (typically >2 cycle thresholds later) may be reported as Sensitive) |  |  |
| Piperacillin/Tazobactam | 17.127 | Resistant | 19.691 | Resistant | 18.647 | Resistant | 16.207 | Resistant | 17.081 | Resistant |  |  |
